# Experimental data reported in patent publication US4083994A, “Choleretics” (Hisamitsu Pharmaceutical Co., Inc., priority 1975, dated 1978).
# Tests used:
# bile secretion [1] = assay: Bile secretion test in dogs; type: in vivo, male mongrel dogs; conditions: into duodenum; for Bile volume secreted after administration: dog, volume in 1 h before administration = 100%; for Volume of bile secreted relative to one hour before administration: one dog (7.6 kg)
# Description: Male mongrel dogs weighing approximately 8 kg were anesthetized with intravenous injection of […] of pentobarbital and further with subcutaneous injection of urethane at a dose of 1.0 g/kg and laparotomized. One canula was inserted into the common bile duct and directed to the liver for collection of the bile, and the other canula was inserted into the duodenum for the drug administration. The cholecystic duct was ligated and the gallbladder bile was aspirated with an injection syringe. The operation was finished by suture of the peritoneum. The bile was collected for one hour from 30 minutes after the operation. The animals were given the test drugs, each 50 mg of which was suspended in 1 ml of 5% gum arabic aqueous solution, through the canula for the drug administration. The bile was collected at hourly intervals for 6 hours after the drug administration. Defining the volume of the bile secreted for one hour before the drug administration as 100%, the volume secreted at hourly intervals after the drug administration was expressed in %, as shown in Table 2.
# The mean volume secreted for one hour before the drug administration was 1798 μl.
# This suspension was used as a choleretic of the present invention. A male mongrel dog weighing 8.8 kg was fasted overnight and anesthetized by subcutaneous injection of 1.0 mg/kg of urethane and laparotomized. One canula was inserted into the common bile duct and directed to the liver for collection of the bile, and the other canula was also inserted into the duodenum for the drug administration. Subsequently, the cholecystic duct was ligated and the gallbladder bile was aspirated with an injection syringe. The operation was finished after suturing the peritoneum. The bile was collected for one hour from 30 minutes after the operation, and subsequently, 44 ml of the test drug prepared above (250 mg/kg) was given through the canula for the drug administration. The volume of the bile secreted for the first, second and third one hour after the drug administration were 2.2, 2.1 and 1.9 times larger, respectively, than that secreted for one hour before the drug administration.
# About 2.5 g of 9-propionyloxy-p-menth-1-en-8-ol was weighed accurately and suspended in 50 ml of 5% gum arabic aqueous solution. This suspension was used as a choleretic of the present invention. A male mongrel dog weighing 7.6 kg was fasted overnight and anesthetized by subcutaneous injection of 1.0 mg/kg of urethane and then laparotomized. One canula was inserted into the common bile duct and directed to the liver for collection of the bile, and the other canula into the duodenum for the drug administration. Subsequently, the cholecystic duct was ligated and the gallbladder bile was aspirated with an injection syringe. The operation was finished by suturing the peritoneum. The bile was collected for one hour from 30 minutes after the operation, and 50 ml (330 mg/kg) of the test drug prepared above was administered through the canula for the drug administration. The volume of the bile secreted for the first, second and third one hour after the drug administration was 3.2, 5.0 and 4.7 times larger, respectively, than that secreted for one hour before the drug administration.
# bile secretion [2] = assay: Bile secretion test in rats; type: in vivo, male Wistar rats; conditions: rat, oral, volume in 1 h before administration = 100%
# Description: Male Wistar rats weighing 200-210 g were fasted overnight and laparotomized under urethane anesthesia(Subcutaneous injection at a dose of 1.5 g/kg). A polyethylene tube was inserted into the common bile duct. The bile was collected for one hour from 30 minutes after the operation. Subsequently, the animals were given orally the test drugs, each 50 mg of which was suspended in 1 ml of 5% gum arabic aqueous solution. The bile was collected for 5 hours after the drug administration. The volume of the bile secreted at hourly intervals after the drug administration was expressed in %, defining the volume secreted for one hour before the drug administration as 100%, as shown in Table 1.
# About 500 mg of p-menth-1-ene-8,9-diol were weighed accurately, and suspended in 10 ml of 5% gum arabic aqueous solution. […] Male rats of Wistar strain weighing 200 g were fasted overnight, anesthetized by subcutanous injection of 0.3 g of urethane and laparotomized. A polyethylene tube was inserted into the common bile duct. The bile was collected for one hour from 30 minutes after the operation. […]
# About 500 mg of 9-acetoxy-p-menth-1-en-8-ol was weighed accurately and suspended in 10ml of 5% gum arabic aqueous solution. […] Male rats of Wistar strain weighing about 210 g were fasted overnight and anesthetized by subcutaneous injection of 0.32 g of urethane and then laparotomized. A polyethylene tube was inserted into the common bile duct, and the bile secreted through the duct was collected for one hour from 30 minutes after the operation. Subsequently, the choleretic of the present invention was administered orally in a volume of 1.05 ml (250 mg/kg).
# [3] = Acute toxicity test in mice; conditions: mouse, in vivo, oral, parentheses: 95% confidence limit
# Description: The test drugs were suspended in 5% gum arabic aqueous solution to make 50 mg/ml, and given orally male mice of ddY strain weighing 18-22 g and male rats of Wistar strain weighing 95-120 g. The LD50 values were calculated from the mortality of the animals that ensued during the 72 hours following the drug administration
structure (smiles),measurement,setting,value
"CCC(O)c1ccccc1 (racemic) [Felicur, phenylpropanol, reference compound]",Bile volume secreted after administration,"bile secretion [1]; 50 mg/kg, 0-1 hr",231%
same,Bile volume secreted after administration,"bile secretion [1]; 50 mg/kg, 1-2 hr",230%
same,Bile volume secreted after administration,"bile secretion [1]; 50 mg/kg, 2-3 hr",188%
same,Bile volume secreted after administration,"bile secretion [1]; 50 mg/kg, 3-4 hr",147%
same,Bile volume secreted after administration,"bile secretion [2]; 250 mg/kg, 0-1 hr",204%
same,Bile volume secreted after administration,"bile secretion [2]; 250 mg/kg, 1-2 hr",172%
same,Bile volume secreted after administration,"bile secretion [2]; 250 mg/kg, 2-3 hr",138%
same,Bile volume secreted after administration,"bile secretion [2]; 250 mg/kg, 3-4 hr",108%
same,Bile volume secreted after administration,"bile secretion [2]; 250 mg/kg, 4-5 hr",88%
"CC(C)[C@@H]1CC[C@@H](C)C[C@H]1O [1-Menthol, 1-menthol, reference compound]",Bile volume secreted after administration,"bile secretion [2]; 80 mg/kg, 0-1 hr",134%
same,Bile volume secreted after administration,"bile secretion [2]; 80 mg/kg, 1-2 hr",114%
same,Bile volume secreted after administration,"bile secretion [2]; 80 mg/kg, 2-3 hr",100%
same,Bile volume secreted after administration,"bile secretion [2]; 80 mg/kg, 3-4 hr",95%
same,Bile volume secreted after administration,"bile secretion [2]; 80 mg/kg, 4-5 hr",89%
same,Bile volume secreted after administration,"bile secretion [2]; 230 mg/kg, 0-1 hr",139%
same,Bile volume secreted after administration,"bile secretion [2]; 230 mg/kg, 1-2 hr",137%
same,Bile volume secreted after administration,"bile secretion [2]; 230 mg/kg, 2-3 hr",133%
same,Bile volume secreted after administration,"bile secretion [2]; 230 mg/kg, 3-4 hr",117%
same,Bile volume secreted after administration,"bile secretion [2]; 230 mg/kg, 4-5 hr",111%
same,Bile volume secreted after administration,"bile secretion [2]; 750 mg/kg, 0-1 hr",152%
same,Bile volume secreted after administration,"bile secretion [2]; 750 mg/kg, 1-2 hr",143%
same,Bile volume secreted after administration,"bile secretion [2]; 750 mg/kg, 2-3 hr",138%
same,Bile volume secreted after administration,"bile secretion [2]; 750 mg/kg, 3-4 hr",122%
same,Bile volume secreted after administration,"bile secretion [2]; 750 mg/kg, 4-5 hr",111%
"CCC(=O)OCC(C)(O)C1CC=C(C)CC1 (stereo not drawn) [9-Propionyloxy-p-menth-1-en-8-ol, 9-propionyloxy-p-menth-1-en-8-ol]",Bile volume secreted after administration,"bile secretion [1]; 330 mg/kg, 0-1 hr",322%
same,Bile volume secreted after administration,"bile secretion [1]; 330 mg/kg, 1-2 hr",497%
same,Bile volume secreted after administration,"bile secretion [1]; 330 mg/kg, 2-3 hr",472%
same,Bile volume secreted after administration,"bile secretion [1]; 330 mg/kg, 3-4 hr",402%
same,Bile volume secreted after administration,"bile secretion [1]; 330 mg/kg, 4-5 hr",367%
same,Bile volume secreted after administration,"bile secretion [1]; 330 mg/kg, 5-6 hr",324%
same,Volume of bile secreted relative to one hour before administration,"bile secretion [1]; 330 mg/kg, first hour",3.2 times
same,Volume of bile secreted relative to one hour before administration,"bile secretion [1]; 330 mg/kg, second hour",5.0 times
same,Volume of bile secreted relative to one hour before administration,"bile secretion [1]; 330 mg/kg, third hour",4.7 times
same,Bile volume secreted after administration,"bile secretion [2]; 110 mg/kg, 0-1 hr",135%
same,Bile volume secreted after administration,"bile secretion [2]; 110 mg/kg, 1-2 hr",117%
same,Bile volume secreted after administration,"bile secretion [2]; 110 mg/kg, 2-3 hr",100%
same,Bile volume secreted after administration,"bile secretion [2]; 110 mg/kg, 3-4 hr",87%
same,Bile volume secreted after administration,"bile secretion [2]; 110 mg/kg, 4-5 hr",74%
same,Bile volume secreted after administration,"bile secretion [2]; 330 mg/kg, 0-1 hr",147%
same,Bile volume secreted after administration,"bile secretion [2]; 330 mg/kg, 1-2 hr",139%
same,Bile volume secreted after administration,"bile secretion [2]; 330 mg/kg, 2-3 hr",118%
same,Bile volume secreted after administration,"bile secretion [2]; 330 mg/kg, 3-4 hr",104%
same,Bile volume secreted after administration,"bile secretion [2]; 330 mg/kg, 4-5 hr",86%
same,Bile volume secreted after administration,"bile secretion [2]; 990 mg/kg, 0-1 hr",176%
same,Bile volume secreted after administration,"bile secretion [2]; 990 mg/kg, 1-2 hr",174%
same,Bile volume secreted after administration,"bile secretion [2]; 990 mg/kg, 2-3 hr",153%
same,Bile volume secreted after administration,"bile secretion [2]; 990 mg/kg, 3-4 hr",130%
same,Bile volume secreted after administration,"bile secretion [2]; 990 mg/kg, 4-5 hr",120%
same,LD50 at 72 h,[3],> 4000 mg/kg
"C=C(C)C1CC=C(C)CC1 (stereo not drawn) [p-Mentha-1,8-diene, p-mentha-1,8-diene]",Bile volume secreted after administration,"bile secretion [1]; 250 mg/kg, 0-1 hr",220%
same,Bile volume secreted after administration,"bile secretion [1]; 250 mg/kg, 1-2 hr",213%
same,Bile volume secreted after administration,"bile secretion [1]; 250 mg/kg, 2-3 hr",185%
same,Bile volume secreted after administration,"bile secretion [1]; 250 mg/kg, 3-4 hr",110%
same,Bile volume secreted after administration,"bile secretion [1]; 250 mg/kg, 4-5 hr",85%
same,Bile volume secreted after administration,"bile secretion [2]; 80 mg/kg, 0-1 hr",101%
same,Bile volume secreted after administration,"bile secretion [2]; 80 mg/kg, 1-2 hr",100%
same,Bile volume secreted after administration,"bile secretion [2]; 80 mg/kg, 2-3 hr",100%
same,Bile volume secreted after administration,"bile secretion [2]; 80 mg/kg, 3-4 hr",94%
same,Bile volume secreted after administration,"bile secretion [2]; 80 mg/kg, 4-5 hr",91%
same,Bile volume secreted after administration,"bile secretion [2]; 250 mg/kg, 0-1 hr",104%
same,Bile volume secreted after administration,"bile secretion [2]; 250 mg/kg, 1-2 hr",108%
same,Bile volume secreted after administration,"bile secretion [2]; 250 mg/kg, 2-3 hr",109%
same,Bile volume secreted after administration,"bile secretion [2]; 250 mg/kg, 3-4 hr",108%
same,Bile volume secreted after administration,"bile secretion [2]; 250 mg/kg, 4-5 hr",104%
same,Bile volume secreted after administration,"bile secretion [2]; 750 mg/kg, 0-1 hr",111%
same,Bile volume secreted after administration,"bile secretion [2]; 750 mg/kg, 1-2 hr",125%
same,Bile volume secreted after administration,"bile secretion [2]; 750 mg/kg, 2-3 hr",128%
same,Bile volume secreted after administration,"bile secretion [2]; 750 mg/kg, 3-4 hr",131%
same,Bile volume secreted after administration,"bile secretion [2]; 750 mg/kg, 4-5 hr",128%
